# Source: patent US11813264B2, “PAR1 modulation to alter myelination” (Mayo Foundation for Medical Education and Research, priority 2014, dated 2023)
# Where no end group is shown, it is not given here.
# How the values were obtained:
# [1] = test system: primary oligodendrocyte cultures (3 DIV); assay: ATP toxicity assay in oligodendrocytes; type: cell-based, mouse
# Protocol: (§1) PAR agonist-induced changes in oligodendrocyte morphology: To determine the effects of recombinant Klk6, Klk1, thrombin, or PAR1-AP on oligodendroglia, 3 DIV PAR1^+/+, PAR1^−/−, and PAR2^−/− oligodendrocytes, PAR1^+/+ OPCs immediately post purification, or Oli-neu cells were grown on cover slips in the presence of agonists for 24 h. For ATP toxicity assays, oligodendrocytes were incubated with ATP (50 μM, Sigma Aldrich) in the presence of Klk6 or Klk1. Following each treatment, oligodendrocyte and OPC cultures were immunolabeled for O4 to visualize the cell body and processes. Oli-neu processes were visualized by staining the actin cytoskeleton with Cy3-conjugated Phalloidin.
# (§2) To assess the effects of Klk6 and other PAR1 agonists on oligodendrocyte morphology and process stability, 20× digital micrographs were overlaid with a 780 μm^2 grid and ImageJ software 1.45r (National Institutes of Health) used to record cell number and the number of processes crossing horizontal grid lines (Scarisbrick et al., Brain 125:1283-1296, 2002). Data are expressed as the mean number of O4^+ or Phalloidin^+ processes per DAPI^+ cell (±SEM).
# (§3) The extent of oligodendrocyte morphological differentiation was determined by scoring O4^+/DAPI^+ oligodendrocyte morphology as simple (only primary processes, no secondary branching), incomplete (one or more primary process without secondary branching), complete (all primary processes with secondary branching), or membrane (complete secondary branching with membrane sheets) (Huang et al., Nat Neurosci 14:45-53, 2011). The mean number of cells in each morphology class was determined across treatments and expressed as percent of total O4^+/DAPI^+ cells.
# (§4) Changes in OPC or oligodendrocyte morphology were quantified from five microscopic fields per cover slip with the mean and SEM calculated across three cover slips per experiment. Each experiment was repeated at least twice using independent cultures. Analysis of oligodendrocyte morphology was performed without knowledge of treatment groups.
# [2] = test system: PLP and MBP RNA expression; assay: Myelin gene expression (PLP, MBP RNA) in Oli-neu oligodendrocytes, quantitative RT-PCR; type: cell-based, mouse; settings: for PLP expression: 24 hours, Klk6 300 nM, thrombin 270 nM, PAR1-AP 100 μM, Klk1 300 nM
# Protocol: (§5) Oli-neu oligodendrocytes are derived from mouse primary oligodendrocyte cultures retrovirally transduced to constitutively express the t-neu oncogene (Jung et al., Eur J Neurosci 7:1245-1265, 1995). All morphology, signaling, and myelin gene expression studies using Oli-neu oligodendrocytes were performed in media containing DMEM, 1% N2, 2 mM Glutamax, 1 mM sodium pyruvate, 20 mM HEPES buffer, and 50 μM β-mercaptoethanol (Sigma Aldrich. To evaluate PAR and Klk6 gene expression in Oli-neu (Table 2), cells were differentiated by treatment with 1 mM N^6, 2′-O-dibutyryladenosine 3′, 5′-cyclic monophosphate disodium salt (dbcAMP) for 72 hours prior to harvesting for RNA isolation. All cells were maintained at 37° C. in 95% air and 5% CO2. Cell culture reagents were obtained from Life Technologies (Carlsbad, CA) unless otherwise indicated. All cell culture experiments were performed in triplicate and repeated at least twice.
# Expression of oligodendrocyte PARs and Klk6-real-time quantitative PCR: Total RNA was isolated from cultured cells using RNA STAT-60 (Tel-Test, Friendswood, TX). Klk6, PAR1, or PAR2 RNA expression was determined in 0.5 μg of RNA with the iScript one-step RT-PCR kit with SYBR® Green and the iCycler iQ5 system (BioRad, Hercules, CA). Transcript copy number was determined using a standard curve prepared by parallel amplification of cDNA clones diluted to known copy number (Christophi et al., J Neurochem 91:1439-1449, 2004). Amplification of the housekeeping gene glyceraldehyde phosphate 3-dehydrogenase (GAPDH) was used to control for loading. The mean and standard error (SEM) of transcript copy number was determined and data expressed as RNA copy number on a logarithmic scale.
# Regulation of oligodendrocyte myelin gene expression by PAR1 agonists: Primary murine oligodendrocytes (3 DIV) or Oli-neu oligodendrocytes were seeded at 3.5×10^5 cells/well in six-well tissue culture plates. Cells were then treated with Klk6 (30-300 nM), Klk1 (300 nM), thrombin (270 nM), or PAR1-AP (100 μM) for 24 hours prior to RNA isolation. Expression of myelin-associated genes, PLP, and MBP was examined by real-time quantitative RT-PCR. Expression levels of target genes were normalized to GAPDH and expressed as percent control.
# [3] = test system: primary oligodendrocyte cultures (3 DIV); assay: Oligodendrocyte morphological differentiation scoring (simple, incomplete, complete, membrane), process and cell number; type: cell-based, mouse
# Protocol: (§6) Oligodendrocyte Cultures: Purified cortical oligodendrocyte progenitor cells (OPCs) and differentiated oligodendrocytes were isolated from mixed glial cultures derived from postnatal day 1 mice (McCarthy and de Vellis, J Cell Blot 85:890-902, 1980). Glial cultures were grown in media containing DMEM, 2 mM Glutamax, 1 mM sodium pyruvate, 20 mM HEPES, and 10% heat-inactivated fetal calf serum (Atlanta Biologicals, Lawrenceville, GA). OPCs were isolated from 10 days-in-vitro (DIV) mixed glial cultures by overnight shaking and purified by differential adhesion. OPCs were seeded in defined Neurobasal A media containing 1% N2, 50 U/mL penicillin/streptomycin, 2 mM Glutamax, 1 mM sodium pyruvate, 0.45% glucose, and 50 μM β-mercaptoethanol (Sigma Aldrich, USA). OPCs were seeded at 3×10^4/cm^2 onto tissue culture plastic or 12 mm glass cover slips coated with poly-L-lysine (PLL, 10 μg/mL). After 24 h, cultures were 92-98% immunoreactive (IR) for sulfatide (O4) and by 72 hours at least 80% were also MBP-IR.
# as §1, §2, §3, §4
# [4] = test system: Oli-neu oligodendrocytes; assay: Process retraction in Oli-neu oligodendrocytes (Phalloidin+ processes per cell); type: cell-based, mouse; settings: 24 hours, PAR1-AP 100 μM, Klk1 300 nM; for number of processes per cell: Klk6 30, 150, 300 nM, thrombin 270 nM
# Protocol: as §5, §1, §2
# [5] = test system: oligodendrocyte progenitor cells (OPCs); assay: OPC process outgrowth; type: cell-based, mouse; settings: 24 h; for OPC process extension / outgrowth: Klk6 150 nM, thrombin 135 nM, Klk1 150 nM
# Protocol: as §6, §1, §2, §4
# [6] = test system: Erk1/2 phosphorylation; assay: Klk6-PAR signaling assay, Erk1/2 phosphorylation by Western blot in Oli-neu; type: cell-based, mouse; settings: treatment alone; Klk6 10 minutes
# Protocol: Klk6-PAR signaling assays: To examine the ability of Klk6 to mediate PAR-dependent signaling in oligodendrocytes, Oli-neu oligodendroglia (3.5×10^5 cells/well in six-well plates) were treated with Klk6 (150 nM) for 10 min, followed by protein harvest. Cell lysates were analyzed for phosphorylated or nonphosphorylated Erk1/2 by Western blot. In experiments to determine the role of PARs in Klk6 signaling, Oli-neu were preincubated with the PAR1 antagonist, SCH79797 dihydrochloride (50 nM, Tocris Biosciences, Minneapolis, MN) for 30 minutes prior to Klk6 application.
# Western blot: Oli-neu lysates were obtained using a buffer containing 1% NP40, 0.5% deoxycholate, 10% glycerol, and 20 mM Tris base and separated on SDS-polyacrylamide gels prior to transfer. Membranes were blocked with 5% milk in TBS-T and incubated overnight with primary antibodies including rabbit anti-phospho-Erk1/2 (1:1,000, Cell Signaling Technology, Danvers, MA), followed with a species-appropriate horseradish peroxidase-conjugated secondary antibody (1:20,000 GE Healthcare Unlimited, UK). Signal was detected using Chemiluminescence Supersignal Pico (Pierce, Rockford, IL). Western blots were repeated three times from independent cultures, scanned, and quantified by densitometry (BioRad Quantity One 1-D Analysis Software, BioRad, Hercules, CA). Erk1/2 signal was normalized to its nonphosphorylated form. Equal loading was verified by reprobing blots for […] (Novus Biologicals, Littleton, CO).
# [7] = test system: spinal cord white matter; assay: Microinjection of Klk6 or PAR1-AP into spinal cord dorsal column white matter; type: in vivo, mouse
# Protocol: In vivo effects of excess Klk6 or PAR1-AP in spinal cord white matter: All mice were administered Buprenorphine preoperatively (Buprenex, 0.03 mg/kg, intraperitoneal (i.p.), Reckitt Benckise, Slough, UK) and every 12 hours for the first 48 hours following surgery. Surgical anesthesia was induced in age-matched male C57BL6/J or PAR12/2 mice using Ketamine (Ketaset, 80 mg/kg, Fort Dodge Animal Health, Fort Dodge, IA) and Xylazine i.p. (Anased, 10 mg/kg, Lloyd Laboratories, Shenendoah, IA). A thoracic (T11-T12) laminectomy was performed and a 30-40 μm glass capillary needle inserted into a 10 μL gas-tight Hamilton Syringe (Hamilton Company, Reno, NV) used to deliver 2 μL of Klk6 (0.01 μg/μL (300 nM)), PAR1-AP (0.01 μg/μL (100 μM)), or vehicle (physiologic saline) alone (n=3 for each treatment group) using a stereotaxic injection system (Stoelting, Wood Dale, IL). Under micromanipulator control (MyNeurolab, Richmond, IL), the needle was inserted 350 μm into the dorsal column, infusion carried out over 5 minutes and the needle left in place for 3 minutes to avoid backflow. All mice received 0.5 mL of sterile saline and Baytril (2.5 mg/kg, Bayer Healthcare, Shawnee Mission, KS) i.p. postoperatively.
# Seventy-two hours after microinjection of PAR1 agonists, mice were deeply anesthetized with Nembutal (50 mg/kg, i.p., Lundbeck, Deerfield, IL) and perfused transcardially with 4% PFA. Two millimeter transverse spinal cord segments encompassing the microinjection epicenter as well as 2 mm rostral and caudal were embedded in paraffin. Six micrometer sections were cut and slide mounted serially. Every sixth slide was stained with hematoxylin and eosin (H&E). Adjacent sections were immunostained for oligodendroglia using an antibody specific for CC-1/APC (ab16794, AbCam, Cambridge, MA), myelin using an antibody recognizing MBP (MAB386, Millipore, Bedford, MA), and standard avidin-biotin immunoperoxidase techniques (Scarisbrick et al., J Comp Neurol 431:347-361, 2001; and Scarisbrick et al. 2012b, supra). Stained sections were cover slipped with Permount (Fisher Scientific, Pittsburgh, PA) containing 2 mg/mL bisbenzamide to visualize nuclei (Sigma Aldrich).
# Measurements of white matter lesion area were based on signs of pathology (vacuolation, tissue destruction, hemorrhage) in 20× digital images of H&E stained sections. The largest lesion area in each animal was used to determine mean maximal lesion area and expressed in μm^2. The integrity of MBP immunoreactivity was assessed in sections for 2,000 μm rostrocaudal to the microinjection site. The number of dorsal column CC-1^+/DAPI^+ cells was quantified in sections across […] of spinal cord extending rostrocaudal to the epicenter. The mean area of dorsal column white matter in the intact spinal cord was approximately […]. To put the number of CC-1^+ oligodendrocytes into context, the mean number CC-1V cells per mm^2 was evaluated as the mean number per […]. Sections stained for CC-1 were also stained for GFAP (Sigma Aldrich), allowing for the exclusion of CC-1^+ astrocytes; however, no examples of double labeled cells were observed.
# [8] = Klk6 150 nM, Klk1 300 nM, 24 hours
molecule,measurement,setting,value
"Nc1ncnc2c1ncn2[C@@H]1O[C@H](COP(=O)(O)OP(=O)(O)OP(=O)(O)O)[C@@H](O)[C@H]1O [ATP, reference compound]",number of processes per oligodendrocyte,[1]; ATP 50 μM alone,two-fold reduction
same,cells with complete morphology,"[1]; ATP 50 μM alone, 24 h",significant decrease
same,cells with membrane morphology,"[1]; ATP 50 μM alone, 24 h","small, but significant increase"
same,percentage of cells with simple morphology,"[1]; ATP 50 μM alone, 24 h",significant increase
same,oligodendrocyte number relative to control,[1]; ATP alone,significant decrease
"N#CC(=C(/N)Sc1ccccc1N)/C(C#N)=C(\N)Sc1ccccc1N [U0126, reference compound]",PLP RNA expression,[2]; U0126 alone,No significant change
Klk1: Recombinant murine Klk1 expressed using a baculovirus system,oligodendrocyte morphology,[3]; 300 nM,did not significantly impact
same,oligodendrocyte number,[3]; [8],did not significantly impact
same,processes per cell,[3]; [8],did not significantly impact
same,ATP-induced oligodendrocyte loss,[1]; co-application with ATP,did not increase
same,number of processes per oligodendrocyte,[1]; co-application with ATP 50 μM,did not impact
same,oligodendrocytes with membrane morphology,[1]; co-application with ATP 50 μM,significant decrease
same,Oli-neu cell number,[4]; Klk6 30 nM,no effect
same,number of processes per cell,[4],no effect
same,number of OPCs,[5],no effect
same,OPC process extension / outgrowth,[5],comparable to controls
same,Erk1/2 phosphorylation,[6],No significant changes
"TFLLR-amide (TFLLR-NH2) [PAR1-AP, reference compound]",number of processes per cell,[4],significant decrease
same,PLP expression,[2],significantly decreased
same,maximal lesion area relative to saline alone,[7]; PAR1+/+ mice,enhanced
same,reduction of CC-1+ cells in dorsal column white matter,[7]; PAR1+/+ mice,~15%
same,loss of MBP-immunoreactivity relative to saline alone,"[7]; PAR1+/+ mice, 72 hours",~45%
same,rostrocaudal white matter pathology,"[7]; PAR1+/+ mice, 0.02 μg, 72 hours","1,026.0±105.3 μm"
same,white matter pathology,[7]; PAR1-/- mice,absent
thrombin,number of processes per cell,[4],significant decrease
same,number of OPCs,[5],no effect
same,OPC process extension / outgrowth,[5],inhibited
same,PLP expression,[2],significantly decreased
